# Source: patent publication US12458688B2, “Epitopes” (Scancell Limited, priority 2018, dated 2025)
# Experiments:
# [1] = biological target: HLA-DP4 (human); experiment: DP4 competition ELISA; competitor biotinylated Hep B peptide; 10 ug unlabelled against 10 ug biotinylated Hep B
# [2] = system: HLA-HHDII/DP4 mice; experiment: Ex vivo IFNγ ELISpot after peptide immunisation, HHDII/DP4 mice; format: in vivo, mouse; settings: for IFNγ ELISpot response: 3 immunisations with CpG/MPLA, day 21
# Experimental: C57BL/6 mice (Charles River, UK), HLA-DR4 mice (Model #4149, Taconic, USA), HLA-A2/DR1 (HHDII/DR1, Pasteur Institute), HLA-A2.1+/+HLA-DP4+/+hCD4+/+ (HLA-HHDII/DP4) transgenic mice (EM: 02221, European Mouse Mutant Archive) described in patent WO2013/017545 A1 (EMMA repository, France) were used, aged between 8 and 12 weeks. Peptides were dissolved in PBS to 1 mg/ml and then emulsified (a series of dilutions) with CpG ODN 1826 and MPLA 6 μg/mouse of each (Invivogen, UK). Peptides (25 μg/mouse) were injected subcutaneously at the base of the tail. Mice were immunised at days 1, 7 and 14 for peptide immunisation. Spleens were removed for analysis at day 21 unless stated otherwise.
# ELISpot assays were performed using murine IFNγ, IL-17 and IL-10 capture and detection reagents according to the manufacturer's instructions (Mabtech, Sweden). In brief, anti-IFNγ, IL-17 and IL-10 specific antibodies were coated onto wells of 96-well Immobilin-P plate. Synthetic peptides (at various concentrations) and 5×10^5 per well splenocytes were added to wells of the plate in quadruplicate Tumour target cells were added where relevant at 5×10^4/well in triplicate and plates incubated for 40 hrs at 37° C. After incubation, captured IFNγ, IL-10 and IL-17 were detected by biotinylated anti-IFNγ, IL-10 and IL-17 antibodies and developed with a streptavidin alkaline phosphatase and chromogenic substrate. Lipopolysaccharide (LPS; 5 μg/ml) was used as a positive control. For MHC blocking studies, anti-CD4 blocking antibody (GK1.5) or anti-CD4 blocking antibody (RPA-T4) for HHDII/DP4 mice which express human CD4 and anti-CD8 blocking antibody (2.43) from Bioxcell were used at 20 μg/ml. Spots were analysed and counted using an automated plate reader (Cellular Technologies Ltd).
# Screening was performed to identify potential homocitrullinated ALDOA epitopes in transgenic HHDII/DP4 and HHDII/DR1 mice. Mice were immunised with pools of human homocitrullinated peptides. […] Each pool was administered as three immunisations containing 20 μg of each peptide and CpG/MPLA as an adjuvant. After 21 days the mice were culled and the immune responses to each peptide within the immunising pool were assessed by ex vivo ELISpot in HHDII/DP4 (FIG. 4b) and HHDII/DR1 mice (FIG. 4d). […] Our predictions therefore identified 3/5 peptides which could induce a T cell response. […] Of the responding peptides ALDOA 74-93 Hcit and 140-157 Hcit peptides are homologous in human and mice therefore these two peptides were selected for further investigation. Minimal IL-10 (FIG. 6b) or IL-17 (FIG. 6c) responses were seen to Aldolase peptides in HHDII/DP4 mice.
# Using this combination of predictions, 5 CyK8 peptides containing homocitrulline were synthesised (Table 4). Screening was performed to identify potential homocitrullinated Cyk8 epitopes in transgenic HHDII/DP4. Mice were immunised with pools of human homocitrullinated peptides. […] Each pool was administered as three immunisations containing 20 μg of each peptide and CpG/MPLA as an adjuvant. After 21 days the mice were culled and the immune responses to each peptide within the immunising pool were assessed by ex vivo ELISpot in HHDII/DP4 (FIG. 10a). […] The responses to CyK8 101-120 Hcit, 112-131 Hcit, 182-201 Hcit, 371-388 Hcit and 381-399 Hcit immunisation were characterised for cross reactivity to the wt peptide sequence. […] Thus a key characteristic of immunogenic peptides is they express homocitrulline. All of these peptides (100%) were immunogenic. Thus a high predicted HLA-DP4 binding affinity (<30), the presence of homocitrulline residues in the core region, the peptide being amphipathic in nature with a predominantely spiral conformational structure upon 3D modelling, and the existence of homology between the mouse and human sequences defines immunogenicity. When this model was applied retrospectively to include the vimentin and ALDOA peptides 8/9 (88%) were correctly predicted. […]
# [3] = system: B16HHDII/iDP4 tumour cells; experiment: Tumour therapy, B16HHDII/iDP4 tumour in HHDII/DP4 mice; format: in vivo, mouse; settings: peptide with CpG/MPLA
# Experimental: For tumour challenge experiments, mice were challenged with B16F1 cells s.c. on the right flank 3 days before primary immunisation (unless stated otherwise) and subsequently immunised as above. Tumour implants were carried out at dose of 2.5×10^4 cells/mouse for B16F1, 2.5×10^4 cells/mouse for B16F1 DR4, 4×10^5 cells/mouse for B16F1 HHDII/DP4, 5×10^5 cells/mouse for B16 HHDII/DR1, 1×10^5 cells/mouse for B16F1 HHDII/inducibleDP4, 5×10^4 cells/mouse for B16F1 inducible DR4. For studies involving depletion antibodies, 250 μg anti-mouse Ly6C antibody (clone Monts, BioXcell) was administered i.p. on days 8, 10, 12, 15, 17 and 19. 400 μg anti-mouse Ly6G antibody (clone 1A8, Biolegend) was administered i.p. on day 8 followed by 250 μg on days 11, 15 and 18. Anti-human CD4 antibody (clone OKT4, BioXcell) or anti-mouse CD8 antibody (clone 2.43, BioXcell) were administered at 500 μg dose on day 4 followed by 300 μg dose on days 8 and 11. Tumour growth was monitored twice weekly and mice were humanely euthanised once tumour reached ≥15 mm in diameter.
# To provide further evidence for the role of CD4 T cell responses in tumour therapy HHDII/DP4 mice were implanted with B16HHDII/iDP4 tumour cells on day 1 and then immunised with peptides and CpG/MPLA on days 4, 8 and 11. Concurrent with peptide immunisation mice were also treated with CD4 or CD8 depleting antibody and tumour growth monitored. […] To show whether cyanate/isocyanic acid can cross cell membranes B16F1 melanoma cell line was cultured in vitro in the presence or absence of potassium cyanate which is in dynamic equilibrium with isocyanic acid. As a positive control lysates were also produced from in vitro cultured B16F1 cells and then treated with or without KCNO.
# [4] = biological target: HLA-DP4 (human)
# [5] = splenocytes after 7 days culture
# HLA-DP4 (human), sequence (P20036 29-260, chain 1 of 2): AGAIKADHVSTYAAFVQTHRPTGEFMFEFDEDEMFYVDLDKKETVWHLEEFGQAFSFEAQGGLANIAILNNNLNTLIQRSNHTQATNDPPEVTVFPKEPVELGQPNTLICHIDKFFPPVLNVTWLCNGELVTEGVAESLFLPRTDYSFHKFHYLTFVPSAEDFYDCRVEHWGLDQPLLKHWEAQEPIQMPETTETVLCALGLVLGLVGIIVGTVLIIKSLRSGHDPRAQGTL
# HLA-DP4 (human), sequence (P04440 30-258, chain 2 of 2, further chain): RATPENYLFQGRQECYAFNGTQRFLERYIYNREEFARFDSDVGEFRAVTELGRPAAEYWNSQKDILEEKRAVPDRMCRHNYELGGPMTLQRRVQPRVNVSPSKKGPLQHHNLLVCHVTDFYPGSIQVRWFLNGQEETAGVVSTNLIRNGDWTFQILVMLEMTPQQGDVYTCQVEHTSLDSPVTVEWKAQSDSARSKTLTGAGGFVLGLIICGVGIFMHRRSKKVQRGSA
substance,measurement,setting,value
Hep B 181-192 peptide (unlabelled),% inhibition,[1],47%
GSHAGN-Hcit-LAMQEFMILPVGAA [Alpha enolase 156-176 Hcit],IFNγ ELISpot response,[2],stimulation of IFNγ responses
same,IFNγ response in presence of CD4 blocking antibody,[2]; [5],lost
same,tumour growth / survival vs control,[3],Significant prevention of tumour growth
A-Hcit-FINYV-Hcit-NCFRMTDQEAIQDL [NPM 266-287 Hcit],cross reactivity of Hcit response to wt peptide,[2],significantly higher
same,IFNγ ELISpot response,[2],stimulation of IFNγ responses
same,IFNγ response in presence of CD8 blocking antibody,[2]; [5],lost
same,tumour growth / survival vs control,[3],Significant prevention of tumour growth
RNELESYAYSL-Hcit-NQIGD-Hcit- [BiP 562-579 Hcit],cross reactivity of Hcit response to wt peptide,[2],significantly higher
same,IFNγ ELISpot response,[2],stimulation of IFNγ responses
same,IFNγ response in presence of CD4 blocking antibody,[2]; [5],loss of response
same,tumour growth / survival vs control,[3],Significant prevention of tumour growth
FSLADAINTEF-Hcit-NTRTNE-Hcit-VELQ [Vimentin 86-108 Hcit],IFNγ ELISpot response,[2],stimulation of IFNγ responses
same,IFNγ response in presence of CD4 blocking antibody,[2]; [5],loss of response
same,tumour growth / survival vs control,[3],Significant prevention of tumour growth
Biotinylated Hep B 181-192 peptide,OD,[4],0.85 OD (450 nm)
